Measurements as given in article PMC13128453, “Complexoform-restricted covalent TRMT112 ligands that allosterically agonize METTL5” (Nature Chemical Biology, 2025).
Each block holds one molecule with its values, some of them ahead of it.

How the values were obtained:
RNF14 [1] = target: T1, RNF14 (Homo sapiens, UniProt Q9UBS8); assay: cysteine-directed ABPP (Glu-C) and competitive protein-directed ABPP in cells; format: cell-based; parameters: endogenous RNF14 in Ramos cells; recombinant RNF14-FLAG in HEK293T cells; conditions: read-out: Competition (%)
T1 sequence (Q9UBS8 1-474): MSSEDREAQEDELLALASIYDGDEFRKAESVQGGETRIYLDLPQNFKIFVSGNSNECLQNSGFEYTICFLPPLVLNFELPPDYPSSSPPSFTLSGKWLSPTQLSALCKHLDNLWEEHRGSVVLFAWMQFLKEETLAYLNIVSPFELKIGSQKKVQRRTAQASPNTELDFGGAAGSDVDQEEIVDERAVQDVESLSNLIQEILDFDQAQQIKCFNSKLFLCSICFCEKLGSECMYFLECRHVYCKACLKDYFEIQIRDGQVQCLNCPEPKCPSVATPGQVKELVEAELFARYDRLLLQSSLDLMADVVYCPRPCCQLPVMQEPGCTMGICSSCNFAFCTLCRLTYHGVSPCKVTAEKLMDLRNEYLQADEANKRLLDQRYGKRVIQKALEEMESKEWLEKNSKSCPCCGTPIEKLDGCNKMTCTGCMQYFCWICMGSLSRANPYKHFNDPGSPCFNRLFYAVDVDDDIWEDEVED

REEP5 = target: T2, REEP5 (Homo sapiens, UniProt Q00765); assay: cysteine-directed and competitive protein-directed ABPP in cells; format: cell-based; conditions: read-out: Competition (%)
T2 construct: endogenous protein in Ramos cells
T2 sequence (Q00765 whole entry): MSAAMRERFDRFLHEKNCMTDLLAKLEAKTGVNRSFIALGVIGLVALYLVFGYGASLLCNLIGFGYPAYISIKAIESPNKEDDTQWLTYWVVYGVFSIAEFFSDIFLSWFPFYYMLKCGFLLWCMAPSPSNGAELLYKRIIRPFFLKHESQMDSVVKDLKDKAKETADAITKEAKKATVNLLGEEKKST

TRMT112 [2] = target: T3, TRMT112 (Homo sapiens, UniProt Q9NRN9+Q9UI30); assay: intact MS kobs/[I] on purified complex; competitive gel-ABPP in HCT116 cells (IC50); format: cell-based; parameters: TRMT112-FLAG:HA-METTL5 in HCT116 cells (IC50); purified TRMT112:His-METTL5 (intact MS); with METTL5
T3 sequence (Q9NRN9 whole entry, one chain of several): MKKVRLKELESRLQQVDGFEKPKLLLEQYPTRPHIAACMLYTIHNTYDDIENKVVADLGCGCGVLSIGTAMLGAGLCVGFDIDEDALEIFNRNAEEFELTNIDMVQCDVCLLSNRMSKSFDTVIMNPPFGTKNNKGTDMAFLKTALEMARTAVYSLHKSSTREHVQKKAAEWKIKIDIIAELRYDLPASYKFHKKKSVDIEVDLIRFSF

TRMT112 [3] = target: T3, TRMT112; assay: intact MS kobs/[I] on purified complex; gel-ABPP and protein-directed ABPP in cells; format: binding; parameters: purified WT-TRMT112:His-METTL5 (intact MS); TRMT112-FLAG in HCT116 cells coexpressing HA-METTL5; with METTL5
TRMT112 [4] = target: T3, TRMT112; assay: […] A cocrystal structure; intact MS (kobs/[I][…] s-1); competitive gel-ABPP on purified complex; format: binding; parameters: full-length, tag-free TRMT112:METTL5 complex (crystal); TRMT112:His-METTL5 (IC50); with METTL5
RNF14 [5] = target: T1, RNF14; assay: gel-ABPP and protein-directed ABPP in cells; format: cell-based; parameters: RNF14-FLAG expressed in HEK293T cells
UVRAG = target: T4, UVRAG (Homo sapiens, UniProt Q9P2Y5); assay: cysteine-directed and competitive protein-directed ABPP in cells; format: cell-based; conditions: read-out: Competition (%)
T4 construct: endogenous protein in Ramos cells
T4 sequence (Q9P2Y5 1-699): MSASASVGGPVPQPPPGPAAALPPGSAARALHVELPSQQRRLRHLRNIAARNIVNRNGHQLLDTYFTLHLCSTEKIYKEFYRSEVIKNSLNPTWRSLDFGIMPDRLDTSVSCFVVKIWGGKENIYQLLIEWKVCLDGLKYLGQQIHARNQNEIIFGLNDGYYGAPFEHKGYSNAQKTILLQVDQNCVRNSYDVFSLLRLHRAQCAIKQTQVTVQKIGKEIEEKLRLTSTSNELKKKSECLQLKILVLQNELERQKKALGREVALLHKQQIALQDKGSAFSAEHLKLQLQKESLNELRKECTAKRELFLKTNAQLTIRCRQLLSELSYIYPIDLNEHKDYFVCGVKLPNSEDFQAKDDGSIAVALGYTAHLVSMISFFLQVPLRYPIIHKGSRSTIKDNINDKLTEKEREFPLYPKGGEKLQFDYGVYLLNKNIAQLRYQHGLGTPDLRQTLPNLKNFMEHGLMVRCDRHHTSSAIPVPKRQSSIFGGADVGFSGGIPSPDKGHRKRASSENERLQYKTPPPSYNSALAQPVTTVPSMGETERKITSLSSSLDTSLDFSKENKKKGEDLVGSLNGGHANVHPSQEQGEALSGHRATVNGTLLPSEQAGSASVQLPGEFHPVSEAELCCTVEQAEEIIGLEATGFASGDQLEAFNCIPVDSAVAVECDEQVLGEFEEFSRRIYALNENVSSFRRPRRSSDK

[6] = target: T5, METTL5 (tag-free, of the tag-free TRMT112:METTL5 complex) (human, UniProt Q9NRN9 1-209); assay: crystal structure; tag-free TRMT112:METTL5 complex modified with FWG-33B in the presence of SAM; crystals in 21% PEG3350, 0.36 M ammonium sulfate, 0.1 M Bis–Tris pH 5.5, 4 °C; 1.3 Å; conditions: both partners purified
T5 construct: METTL5, human, full-length gene codon-optimized for E. coli; same construct as His–METTL5, the His tag removed with TEV protease; By the printed primer a Ser would remain before the first Met after TEV cleavage; also called WT-METTL5; source: E. coli BL21 (DE3), coexpressed with TRMT112, purified (Ni-NTA, TEV cleavage, Ni-NTA, anion exchange, SEC); not shown: His tag, N-terminal, cleaved
T5 sequence (Q9NRN9 whole entry, one chain of several): as the sequence (Q9NRN9 whole entry, one chain of several) above

- inhibition at 50 µM (RNF14 [1]): > 80%
Molecule: C=CC(=O)N1C[C@@H]2[C@H](C1)[C@@H](c1cccc(OC)c1)C[C@@H]2Oc1ccc(NC(C)=O)cc1 [compound 12, FWG-2B]

- inhibition at 50 µM (REEP5): > 60%
- IC50 (TRMT112 [2]): 12 µM
Molecule: C=CC(=O)N1C[C@@H]2[C@H](C1)[C@@H](c1cccc(OC)c1)C[C@H]2Oc1ccc(NC(C)=O)cc1 [compound 10, FWG-1B]

Molecule: C#CCCC(=O)Nc1ccc(O[C@@H]2C[C@H](c3cccc(OC)c3)[C@H]3CN(C(=O)C=C)C[C@H]32)cc1 [compound 14, FWG-3B]
- intact MS kobs/[I] on purified complex; gel-ABPP and protein-directed ABPP in ce (TRMT112 [3]): FWG-3B showed enhanced reactivity with TRMT112 exclusively in cells coexpressing the RNA MT METTL5

- IC50 (TRMT112 [4]): 0.47 µM
Molecule: C=CC(=O)N1C[C@@H]2[C@H](C1)[C@@H](c1cccc(Cl)c1)C[C@H]2Oc1ccc(NC(C)=O)cc1 [compound 22, FWG-33B]

Molecule: C#CCCC(=O)Nc1ccc(O[C@H]2C[C@H](c3cccc(OC)c3)[C@H]3CN(C(=O)C=C)C[C@H]32)cc1 [compound 16, FWG-4B]
- gel-ABPP and protein-directed ABPP in cells (RNF14 [5]): engagement of recombinant WT-RNF14-FLAG and C68A-RNF14-FLAG, but not C212A-RNF14-FLAG by FWG-4B

- inhibition at 50 µM (UVRAG): > 80%
Molecule: C=CC(=O)N1C[C@@H]2[C@H](C1)[C@H](Oc1ccc(NC(C)=O)cc1)C[C@H]2c1cccc(OC)c1 [compound 11, FWG-2A]

- binding result [6]: binds
B1: TRMT112 modified by FWG-33B at C100 (of the FWG-33B-liganded tag-free TRMT112:METTL5 complex) (natural protein, human, UniProt Q9UI30 1-125, looked up)
chain: MKLLTHNLLSSHVRGVGSRGFPLRLQATEVRICPVEFNPNFVARMIPKVEWSAFLEAADNLRLIQVPKGPVEGYEENEEFLRTMHHLLLEVEVIEGTLQCPESGRMFPISRGIPNMLLSEEETES
modifications: covalent adduct between the acrylamide of FWG-33B and C100
notes: TRMT112, human, full-length gene codon-optimized for E. coli, in pACYCDuet-1; also called FWG-33B-modified TRMT112; source: E. coli BL21 (DE3), coexpressed with METTL5, purified as tag-free complex, then treated with 100 μM FWG-33B
